Experimental data: the NIST ThermoML archive (doi:10.1016/j.jct.2015.02.020)

Columns and labels:
[1] = xn = mol fraction of the nth substance listed; conditions: 101.3 kPa, Liquid; for viscosity: Falling or rolling sphere viscometry; for speed of sound: Sing-around technique in a fixed-path interferometer; for mass density: Vibrating tube method
[2] = refractive index (Na D-line) (dimensionless); xn = mol fraction of the nth substance listed; conditions: 101.3 kPa, Liquid, Standard Abbe refractometry

CC[n+]1ccc(C)cc1.O=S(=O)([N-]S(=O)(=O)C(F)(F)F)C(F)(F)F + O
Conditions | mass density, [1] [kg/m3] | refractive index, [2] | speed of sound, [1] [m/s] | viscosity, [1] [mPa·s]
298.15 K, x2 = 0.144 | 1479.48 | 1.44235 | 1266.8 | 24.89
298.15 K, x2 = 0.201 | 1476.6 | 1.44165 | 1268.3 | 22.72
298.15 K, x2 = 0.306 | 1469.91 | 1.44005 | 1271.7 | 19.35
303.15 K, x2 = 0.144 | 1474.53 | 1.44089 | 1255.4 | 21.05
303.15 K, x2 = 0.201 | 1471.63 | 1.44016 | 1256.8 | 19.29
303.15 K, x2 = 0.306 | 1464.89 | 1.43866 | 1260.3 | 16.23
308.15 K, x2 = 0.144 | 1469.61 | 1.4394 | 1244.1 | 18.04
308.15 K, x2 = 0.201 | 1466.68 | 1.43875 | 1245.5 | 16.53
308.15 K, x2 = 0.306 | 1459 | 1.43719 | 1249.2 | 13.95
313.15 K, x2 = 0.144 | 1464.69 | 1.43785 | 1232.9 | 15.53
313.15 K, x2 = 0.201 | 1461.75 | 1.43727 | 1234.3 | 14.31
313.15 K, x2 = 0.306 | 1454.92 | 1.4355 | 1238 | 12.19
318.15 K, x2 = 0.144 | 1459.79 | 1.43674 | 1221.8 | 13.59
318.15 K, x2 = 0.201 | 1456.83 | 1.4359 | 1223.2 | 12.58
318.15 K, x2 = 0.306 | 1449.95 | 1.4346 | 1226.8 | 10.74
323.15 K, x2 = 0.144 | 1454.91 | 1.43532 | 1210.9 | 12.03
323.15 K, x2 = 0.201 | 1451.92 | 1.43441 | 1212.2 | 11.15
323.15 K, x2 = 0.306 | 1444.99 | 1.43373 | 1215.7 | 9.52
328.15 K, x2 = 0.144 | 1450.05 | 1.43396 | 1200.1 | 10.7
328.15 K, x2 = 0.201 | 1447.04 | 1.43298 | 1201.3 | 9.939
328.15 K, x2 = 0.306 | 1440.05 | 1.4324 | 1204.7 | 8.473
333.15 K, x2 = 0.144 | 1445.21 | 1.43253 | 1189.4 | 9.576
333.15 K, x2 = 0.201 | 1442.18 | 1.43159 | 1190.6 | 8.902
333.15 K, x2 = 0.306 | 1435.13 | 1.43102 | 1193.9 | 7.583
338.15 K, x2 = 0.144 | 1440.39 | 1.43108 | 1178.7 | 8.598
338.15 K, x2 = 0.201 | 1437.33 | 1.43016 | 1179.9 | 7.999
338.15 K, x2 = 0.306 | 1430.22 | 1.42965 | 1183 | 6.83
343.15 K, x2 = 0.144 | 1435.58 | 1.42964 | 1168.2 | 7.76
343.15 K, x2 = 0.201 | 1432.49 | 1.42874 | 1169.3 | 7.221
343.15 K, x2 = 0.306 | 1425.33 | 1.42828 | 1172.2 | –

CC[n+]1ccccc1.O=S(=O)([N-]S(=O)(=O)C(F)(F)F)C(F)(F)F [1-ethylpyridinium bis[(trifluoromethyl)sulfonyl]imide] + O
Conditions | mass density, [1] [kg/m3] | refractive index, [2] | speed of sound, [1] [m/s] | viscosity, [1] [mPa·s]
298.15 K, x2 = 0.16 | 1526.97 | 1.43876 | 1270.7 | 29.14
298.15 K, x2 = 0.213 | 1523.14 | 1.43815 | 1272.3 | 25.97
298.15 K, x2 = 0.311 | 1515.34 | 1.43705 | 1276 | 22.45
303.15 K, x2 = 0.16 | 1521.95 | 1.4374 | 1259.7 | 24.71
303.15 K, x2 = 0.213 | 1518.1 | 1.43684 | 1261.3 | 22.07
303.15 K, x2 = 0.311 | 1510.26 | 1.43552 | 1265 | 18.74
308.15 K, x2 = 0.16 | 1516.97 | 1.43587 | 1248.8 | 21.3
308.15 K, x2 = 0.213 | 1513.09 | 1.43539 | 1250.4 | 18.95
308.15 K, x2 = 0.311 | 1505.19 | 1.43461 | 1254 | 16.02
313.15 K, x2 = 0.16 | 1512 | 1.4344 | 1238 | 18.53
313.15 K, x2 = 0.213 | 1508.09 | 1.43415 | 1239.6 | 16.4
313.15 K, x2 = 0.311 | 1500.14 | 1.43318 | 1243.2 | 13.8
318.15 K, x2 = 0.16 | 1507.04 | 1.43296 | 1227.4 | 16.21
318.15 K, x2 = 0.213 | 1503.11 | 1.43277 | 1228.9 | 14.34
318.15 K, x2 = 0.311 | 1495.11 | 1.43193 | 1232.4 | 12.1
323.15 K, x2 = 0.16 | 1502.11 | 1.43144 | 1216.9 | 14.16
323.15 K, x2 = 0.213 | 1498.16 | 1.43144 | 1218.3 | 12.71
323.15 K, x2 = 0.311 | 1490.1 | 1.43082 | 1221.8 | 10.71
328.15 K, x2 = 0.16 | 1497.2 | 1.43003 | 1206.4 | 12.5
328.15 K, x2 = 0.213 | 1493.22 | 1.42994 | 1207.8 | 11.35
328.15 K, x2 = 0.311 | 1485.1 | 1.42955 | 1211.2 | 9.547
333.15 K, x2 = 0.16 | 1492.3 | 1.42859 | 1196.1 | 11.14
333.15 K, x2 = 0.213 | 1488.3 | 1.42857 | 1197.4 | 10.18
333.15 K, x2 = 0.311 | 1480.12 | 1.42824 | 1200.7 | 8.555
338.15 K, x2 = 0.16 | 1487.43 | 1.42719 | 1185.9 | 9.991
338.15 K, x2 = 0.213 | 1483.4 | 1.42725 | 1187.1 | 9.164
338.15 K, x2 = 0.311 | 1475.16 | 1.42694 | 1190.3 | 7.709
343.15 K, x2 = 0.16 | 1482.56 | 1.42569 | 1175.7 | 9.019
343.15 K, x2 = 0.213 | 1478.5 | 1.42589 | 1176.9 | 8.282
343.15 K, x2 = 0.311 | 1470.22 | 1.42551 | 1180 | 6.971
